According to patent publication US12240920B2, “Cyclic peptidomimetic for the treatment of neurological disorders” (Brown University, priority 2019, dated 2025):

Assays:
[1] = test system: repeated corticosterone-injected rats; details: CORT administration model; cited from earlier work
[2] = in vivo; details: plasma

SMILES	depressive-like behavior [1]	half-life [2] [h]
CNC1(c2ccccc2Cl)CCCCC1=O (centres unmarked) [ketamine]	significantly reduced depressive-like behavior	
CC(C)[C@H](NC(=O)[C@@H]1CCC(=O)NCCC(=O)NCCCC[C@H](NC(=O)[C@H](CCCCN)NC(=O)[C@H](Cc2ccc(O)cc2)NC(=O)[C@H](CC(N)=O)NC(=O)[C@H](CCCCN)NC(=O)[C@@H](N)CSSC[C@@H](N)C(=O)N[C@@H](CCCNC(=N)N)C(=O)N[C@@H](CCCNC(=N)N)C(=O)N[C@@H](CCCNC(=N)N)C(=O)N[C@@H](CCCNC(=N)N)C(=O)N[C@@H](CCCNC(=N)N)C(=O)N[C@@H](CCCNC(=N)N)C(=O)N[C@@H](CCCNC(=N)N)C(N)=O)C(=O)N[C@@H]([C@@H](C)O)C(=O)N1)C(=O)O [CN2097, R7Cs-sCYK[KTE(β-Ala)]V]		~1
